The numbers were not newly measured in patent US5030638A, “Method of antiviral enhancement” (priority 1990, dated 1991), which cites them from elsewhere.

Series [1] deals with trimming glucosidase II. As to conditions: Hettkamp et al.; cited from earlier work.
Series [2] relates to trimming glucosidase I. The note with it: Hettkamp et al.; cited from earlier work.
The test system of series [3] is HIV. The note with it: literature; cited from earlier work.
Series [4] relates to α-glycosidase. As to conditions: literature; cited from earlier work.

For the compound `CCCCCCCCCCCCN1C[C@H](O)[C@@H](O)[C@H](O)[C@H]1CO` [N-dodecyl-1-deoxynojirimycin], the “effect on trimming glucosidase II” value in series [1] is “to a lesser degree than deoxynojirimycin or N-methyl-deoxynojirimycin”. In series [2], the “effect on trimming glucosidase I” value was “to a lesser degree than deoxynojirimycin or N-methyl-deoxynojirimycin”.
`OC[C@H]1NCC[C@@H](O)[C@@H]1O` [fagomine]: the “HIV inhibitory / antiviral activity” value in series [3] is given as “no HIV inhibition was observed”. The α-glycosidase inhibitory activity result in series [4] is “known to have α-glycosidase inhibitory activity”.
